According to US20090258870A1, “NOVEL ANSAMITOCIN DERIVATIVES” (priority 2008, published 2009):
In brackets after ≈: the same amount, converted by molar mass.

What was measured:
KB-3-1 = test: Growth inhibition of KB-3-1 cells, MTT assay; format: cell-based, human; details: for Antiproliferative activity IC50: KB-3-1, cervix carcinoma, 5 days, MTT
Method: (§1) For the detailed evaluation of their biological profile as anti-cancer agents, cultured human tumor cell lines were treated with the new ansamitocin derivatives. In particular, the 19-fluoro-20-demethoxyansamitocin P3 (F-A), 19-chloro-20-demethoxyansamitocin P3 (Cl-A), 19-bromo-20-demethoxyansamitocin P3 (Br-A), and the 20-demethoxy-19-vinylansamitocin P3 (VI) were tested for their inhibitory effect on cell growth of different cell lines, namely KB-3-1, U-937, PC-3, SK-OV-3, A-498, A-431, and A-549, in comparison to natural biosynthesis product Ansamitocin P-3 (AP-3). Growth inhibition was measured in microtiter plates. 60 μl of serial dilutions of the test compounds were added to aliquots of 120 μl of the suspended cells (50000/ml). After 5 days the growth was determined using a MTT assay, except for U-937, where the WST-1 assay from Roche was employed.

SK-OV-3 = test: Growth inhibition of SK-OV-3 cells, MTT assay; format: cell-based, human; details: for Antiproliferative activity IC50: SK-OV-3, ovarian carcinoma, 5 days, MTT
Method: as §1

A-431 = test: Growth inhibition of A-431 cells, MTT assay; format: cell-based, human; details: for Antiproliferative activity IC50: A-431, epidermoid carcinoma, 5 days, MTT
Method: as §1

A-549 = test: Growth inhibition of A-549 cells, MTT assay; format: cell-based, human; details: for Antiproliferative activity IC50: A-549, lung carcinoma, 5 days, MTT
Method: as §1

U-937 = test: Growth inhibition of U-937 cells, WST-1 assay; format: cell-based, human; details: for Antiproliferative activity IC50: U-937, lymphoma, 5 days, WST-1
Method: as §1

PC-3 = test: Growth inhibition of PC-3 cells, MTT assay; format: cell-based, human; details: for Antiproliferative activity IC50: PC-3, prostate carcinoma, 5 days, MTT
Method: as §1

A-498 = test: Growth inhibition of A-498 cells, MTT assay; format: cell-based, human; details: for Antiproliferative activity IC50: A-498, kidney carcinoma, 5 days, MTT
Method: as §1

[1] = system: cultured human tumor cell lines; test: Antiproliferative activity on cultured human tumor cell lines (panel, general statements); format: cell-based; details: in general, across the cell lines tested
Method: as §1

Row | Compound | Antiproliferative activity IC50 (KB-3-1) [ng/mL] | Antiproliferative activity IC50 (SK-OV-3) [ng/mL] | Antiproliferative activity IC50 (A-431) [ng/mL] | Antiproliferative activity IC50 (A-549) [ng/mL] | Antiproliferative activity IC50 (U-937) [ng/mL] | Antiproliferative activity IC50 (PC-3) [ng/mL] | Antiproliferative activity IC50 (A-498) [ng/mL] | relative activity among the compounds tested [1] | IC50 (KB-3-1; Homo sapiens, KB 3-1, 120 h, read-out: Antiproliferative activity IC50) [ng/mL] | IC50 (SK-OV-3; Homo sapiens, SK-OV-3, 120 h, read-out: Antiproliferative activity IC50) [ng/mL] | IC50 (A-431; Homo sapiens, A-431, 120 h, read-out: Antiproliferative activity IC50) [ng/mL] | IC50 (A-549; Homo sapiens, A549, 120 h, read-out: Antiproliferative activity IC50) [ng/mL] | IC50 (U-937; Homo sapiens, U-937, 120 h, read-out: Antiproliferative activity IC50) [ng/mL] | IC50 (PC-3; Homo sapiens, PC-3, 120 h, read-out: Antiproliferative activity IC50) [ng/mL] | IC50 (A-498; Homo sapiens, A498, 120 h, read-out: Antiproliferative activity IC50) [ng/mL]
1 | 19-chloro-20-demethoxyansamitocin P3 [Cl-A] | 0.35 | 0.1 | 0.15 | 0.4 | 0.035 | 0.12 | 3 | – | – | – | – | – | – | – | –
2 | 19-fluoro-20-demethoxyansamitocin P3 [F-A] | 0.18 | 0.035 | 0.04 | 0.11 | 0.01 | 0.035 | 2 | most active | – | – | – | – | – | – | –
3 | C=Cc1ccc2cc1N(C)C(=O)CC(OC(=O)C(C)C)C1(C)OC1C(C)C1CC(O)(NC(=O)O1)C(OC)C=CC=C(C)C2 (stereo not shown) [20-demethoxy-19-vinylansamitocin P3] | – | – | – | – | – | – | – | most active | – | – | – | – | – | – | –
4 | COc1cc2cc(c1Cl)N(C)C(=O)C[C@H](OC(=O)C(C)C)[C@]1(C)O[C@@H]1[C@H](C)[C@@H]1C[C@@](O)(NC(=O)O1)[C@H](OC)/C=C/C=C(\C)C2 [AP-3, Ansamitocin P-3, reference compound] | 0.11 | 0.03 | 0.05 | 0.1 | 0.0035 | 0.035 | 1.1 | – | – | – | – | – | – | – | –
5 | CO[C@@H]1/C=C/C=C(\C)Cc2ccc(Br)c(c2)N(C)C(=O)C[C@H](OC(=O)C(C)C)[C@]2(C)O[C@H]2[C@H](C)[C@@H]2C[C@@]1(O)NC(=O)O2 [Br-A, 19-bromo-20-demethoxyansamitocin P3] | 0.3 | 0.05 | 0.1 | 0.3 | 0.03 | 0.1 | 4 | – | – | – | – | – | – | – | –
6 | C=Cc1ccc2cc1N(C)C(=O)C[C@H](OC(=O)C(C)C)[C@]1(C)O[C@H]1[C@H](C)[C@@H]1C[C@@](O)(NC(=O)O1)[C@H](OC)/C=C/C=C(\C)C2 [VI, 20-demethoxy-19-vinylansamitocin P3] | – | – | – | – | – | – | – | – | 0.4 (≈ 0.67 nM) | 0.04 (≈ 0.067 nM) | 0.04 (≈ 0.067 nM) | 0.14 (≈ 0.235 nM) | 0.05 (≈ 0.0838 nM) | 0.1 (≈ 0.168 nM) | 2 (≈ 3.35 nM)
